{"source": "patent US10738028B2", "about": "“Spiro three-membered ring, spiro five-membered ring peptide deformylase inhibitor and use thereof in antibacteria and anti-tumor” (priority 2016, dated 2020)", "format_in_all_cases": "cell-based", "key": {"[1]": {"system": "HCT-116 colorectal cancer cell line", "experiment": "CCK-8 proliferation inhibition", "settings": "Homo sapiens, HCT-116, 72 h, concentration of 30 μM; 72 hours; CCK-8; read-out: HCT116 inhibition rate/%", "outline": "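Viability read-out: 1:10 diluted CCK-8 after 72 h compound exposure at 37 °C, 5% CO2. Cells (2000/well, McCoy's 5A plus 10% newborn bovine serum) pre-cultured overnight; vehicle control 1‰ DMSO.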"}, "[2]": {"system": "methicillin-resistant Staphylococcus aureus (MRSA)", "experiment": "MIC, two-fold agar dilution (CLSI), clinical isolates", "excerpt": "(§1) 1. The invention adopts the two-fold agar dilution method recommended by the operating procedure of antimicrobial susceptibility testing set by American Clinical and Laboratory Standards Institute (CLSI) to determine the Minimum Inhibitory Concentration (MIC) of the test samples against the tested strains."}, "[3]": {"system": "Escherichia coli (including ESBLs, non-ESBLs)", "experiment": "MIC, two-fold agar dilution (CLSI), clinical isolates", "excerpt": "as §1"}, "[4]": {"system": "methicillin-sensitive Staphylococcus aureus (MSSA)", "experiment": "MIC, two-fold agar dilution (CLSI), clinical isolates", "excerpt": "as §1"}, "[5]": {"system": "Streptococcus pneoumoniae (SPN)", "experiment": "MIC, two-fold agar dilution (CLSI), clinical isolates", "excerpt": "as §1"}, "[6]": {"system": "Moraxella catarrhalis (BCA)", "experiment": "MIC, two-fold agar dilution (CLSI), clinical isolates", "excerpt": "as §1"}, "[7]": {"system": "Enterococcus faecium (EFM)", "experiment": "MIC, two-fold agar dilution (CLSI), clinical isolates", "excerpt": "as §1"}, "[8]": {"system": "Enterococcus faecalis (EFA)", "experiment": "MIC, two-fold agar dilution (CLSI), clinical isolates", "excerpt": "as §1"}, "[9]": {"system": "methicillin-sensitive Staphylococcus epidermidis (MSSE)", "experiment": "MIC, two-fold agar dilution (CLSI), clinical isolates", "excerpt": "as §1"}, "[10]": {"system": "methicillin-resistant Staphylococcus epidermidis (MRSE)", "experiment": "MIC, two-fold agar dilution (CLSI), clinical isolates", "excerpt": "as §1"}}}
{"smiles": "O=CN(O)C[C@@H](CC1CCCC1)C(=O)N1CC2(CC2)C[C@H]1C(=O)Nc1ncccc1F", "note": "[Example 30, (S)-5-((R)-3-cyclopentyl-2-((N-hydroxyformamido)methyl)propionyl)-N-(3-fluoropyridin-2-yl)-5-spiro[2.4]heptane-6-carboxamide]", "values": [{"measurement": "inhibition at 30 µM", "setting": "[1]", "value": 17, "unit": "%"}, {"measurement": "MIC (anti-bacterial activity)", "setting": "[2]; strain MRSA 15-1", "value": 0.5, "unit": "µg/mL"}, {"measurement": "MIC (anti-bacterial activity)", "setting": "[2]; strain MRSA 15-2", "value": 0.5, "unit": "µg/mL"}, {"measurement": "MIC (anti-bacterial activity)", "setting": "[2]; strain MRSA 15-3", "value": 0.5, "unit": "µg/mL"}, {"measurement": "MIC (anti-bacterial activity)", "setting": "[2]; strain MRSA 15-4", "value": 0.5, "unit": "µg/mL"}, {"measurement": "MIC (anti-bacterial activity)", "setting": "[3]; strain ECO+ 15-1", "value": 32, "unit": "µg/mL"}, {"measurement": "MIC (anti-bacterial activity)", "setting": "[3]; strain ECO+ 15-2", "value": "> 32", "unit": "µg/mL"}, {"measurement": "MIC (anti-bacterial activity)", "setting": "[3]; strain ECO+ 15-3", "value": "> 32", "unit": "µg/mL"}, {"measurement": "MIC (anti-bacterial activity)", "setting": "[3]; strain ECO+ 15-4", "value": "> 32", "unit": "µg/mL"}, {"measurement": "MIC (anti-bacterial activity)", "setting": "[3]; strain ECO− 15-1", "value": "> 32", "unit": "µg/mL"}, {"measurement": "MIC (anti-bacterial activity)", "setting": "[3]; strain ECO− 15-2", "value": "> 32", "unit": "µg/mL"}, {"measurement": "MIC (anti-bacterial activity)", "setting": "[3]; strain ECO− 15-3", "value": "> 32", "unit": "µg/mL"}, {"measurement": "MIC (anti-bacterial activity)", "setting": "[3]; strain ECO− 15-4", "value": "> 32", "unit": "µg/mL"}, {"measurement": "MIC (anti-bacterial activity)", "setting": "[4]; strain MSSA 15-3", "value": 0.5, "unit": "µg/mL"}, {"measurement": "MIC (anti-bacterial activity)", "setting": "[4]; strain MSSA 15-4", "value": 0.5, "unit": "µg/mL"}, {"measurement": "MIC (anti-bacterial activity)", "setting": "[4]; strain MSSA 15-5", "value": 0.5, "unit": "µg/mL"}, {"measurement": "MIC (anti-bacterial activity)", "setting": "[4]; strain MSSA 15-6", "value": 0.5, "unit": "µg/mL"}, {"measurement": "MIC (anti-bacterial activity)", "setting": "[5]; strain SPN 16-2", "value": 4, "unit": "µg/mL"}, {"measurement": "MIC (anti-bacterial activity)", "setting": "[5]; strain SPN 16-4", "value": 1, "unit": "µg/mL"}, {"measurement": "Anti-bacterial activity (MIC), strain BCA 14-10", "setting": "[6]; clinical isolate BCA 14-10", "value": 0.5, "unit": "µg/mL"}, {"measurement": "MIC (anti-bacterial activity)", "setting": "[6]; strain BCA 14-1", "value": 2, "unit": "µg/mL"}, {"measurement": "MIC (anti-bacterial activity)", "setting": "[6]; strain BCA 14-4", "value": 2, "unit": "µg/mL"}, {"measurement": "MIC (anti-bacterial activity)", "setting": "[6]; strain BCA 14-5", "value": 1, "unit": "µg/mL"}, {"measurement": "MIC (anti-bacterial activity)", "setting": "[6]; strain BCA 14-6", "value": 4, "unit": "µg/mL"}, {"measurement": "MIC (anti-bacterial activity)", "setting": "[6]; strain BCA 14-7", "value": 1, "unit": "µg/mL"}, {"measurement": "MIC (anti-bacterial activity)", "setting": "[6]; strain BCA 14-8", "value": 1, "unit": "µg/mL"}, {"measurement": "MIC (anti-bacterial activity)", "setting": "[7]; strain EFM 15-1", "value": 2, "unit": "µg/mL"}, {"measurement": "MIC (anti-bacterial activity)", "setting": "[7]; strain EFM 15-2", "value": 1, "unit": "µg/mL"}, {"measurement": "MIC (anti-bacterial activity)", "setting": "[7]; strain EFM 15-3", "value": 0.25, "unit": "µg/mL"}, {"measurement": "MIC (anti-bacterial activity)", "setting": "[7]; strain EFM 15-4", "value": 1, "unit": "µg/mL"}, {"measurement": "MIC (anti-bacterial activity)", "setting": "[7]; strain EFM 15-5", "value": 4, "unit": "µg/mL"}, {"measurement": "MIC (anti-bacterial activity)", "setting": "[7]; strain EFM 15-6", "value": 1, "unit": "µg/mL"}, {"measurement": "MIC (anti-bacterial activity)", "setting": "[8]; strain EFA 15-1", "value": 4, "unit": "µg/mL"}, {"measurement": "MIC (anti-bacterial activity)", "setting": "[8]; strain EFA 15-2", "value": 4, "unit": "µg/mL"}, {"measurement": "MIC (anti-bacterial activity)", "setting": "[8]; strain EFA 15-3", "value": 4, "unit": "µg/mL"}, {"measurement": "MIC (anti-bacterial activity)", "setting": "[8]; strain EFA 15-4", "value": 4, "unit": "µg/mL"}, {"measurement": "MIC (anti-bacterial activity)", "setting": "[8]; strain EFA 15-5", "value": 4, "unit": "µg/mL"}, {"measurement": "MIC (anti-bacterial activity)", "setting": "[8]; strain EFA 15-6", "value": 2, "unit": "µg/mL"}, {"measurement": "MIC (anti-bacterial activity)", "setting": "[8]; strain EFA 15-9", "value": 8, "unit": "µg/mL"}, {"measurement": "MIC (anti-bacterial activity)", "setting": "[9]; strain MSSE 15-3", "value": 2, "unit": "µg/mL"}, {"measurement": "MIC (anti-bacterial activity)", "setting": "[9]; strain MSSE 15-4", "value": 2, "unit": "µg/mL"}, {"measurement": "MIC (anti-bacterial activity)", "setting": "[9]; strain MSSE 15-5", "value": 2, "unit": "µg/mL"}, {"measurement": "MIC (anti-bacterial activity)", "setting": "[9]; strain MSSE 15-6", "value": 0.5, "unit": "µg/mL"}, {"measurement": "MIC (anti-bacterial activity)", "setting": "[10]; strain MRSE 15-1", "value": 0.5, "unit": "µg/mL"}, {"measurement": "MIC (anti-bacterial activity)", "setting": "[10]; strain MRSE 15-2", "value": 2, "unit": "µg/mL"}, {"measurement": "MIC (anti-bacterial activity)", "setting": "[10]; strain MRSE 15-3", "value": 2, "unit": "µg/mL"}, {"measurement": "MIC (anti-bacterial activity)", "setting": "[10]; strain MRSE 15-7", "value": 2, "unit": "µg/mL"}]}
